Like-named read-outs stand apart in the source and are kept apart here. Blank lines part the entries; values can stand above or below the compound they belong to.
Assays:
DDAH = molecular target: T1, DDAH (Rattus norvegicus, UniProt O08557); assay: DDAH activity assay (rat kidney lysate, [14C]L-NMMA to [14C]citrulline); assay type: biochemical; conditions: for Inhibition at 1 mM, % / inhibition at 1000 µM: 1 mM compound, [14C]L-NMMA 1 μmol/L, 1 h 37° C.; for Inhibition at 100 μM (%) / inhibition at 100 µM: 100 μM compound
T1 construct: Rat kidney was homogenized in PBS; from tissue; host or cells: rat kidney homogenate, high-speed supernatant
Experimental: Rat kidney was homogenized in PBS containing PMSF 1 mM, leupeptin 5 μg/ml, pepstatin 5 μg/ml, chymostatin 5 μg/ml, and the lysate was centrifuged (4000 rpm. 20 min then supernatant further centrifuged for 40000 rpm, 30 min, 4° C.). The supernatants were analyzed for DDAH activity; [^14[…]) was added to the cell lysates (final volume 100 μl) and incubated for 1 h at 37° C. Dowex resin (0.5 ml) at neutral pH was immediately added to samples to terminate the reaction and bind unmetabolized L-NMMA. [^14C]Citrulline formation was determined by scintillation counting (Hewlett Packard).

eNOS = eNOS assay ([14C]arginine conversion); assay type: biochemical; conditions: eNOS activity
Experimental: Compounds to be tested were added to NOS assay buffer (HEPES 50 mM pH 7.2, FAD 5 μM, FMN 5 μM, BH4 10 μM, NADPH 1 mM, DTT 0.5 mM, CaCl2 1 mM, MgCl2 1 mM, calmodulin 50 nM, [^14C] arginine 100 μM) in a final volume of 100 μl and the reaction was initiated by addition of eNOS (eNOS 3.3. U/reaction, Alexis Biochemicals). Reactions were incubated for 1 h at 37° C. and the reaction was terminated by the addition of Dowex pH 5.5 (0.85 ml) to each tube. Tubes were vortexed and microfuged <12000 g, 5 min. 100 μl of the Dowex supernatant was added to 5 ml scintillation cocktail and was counted in a scintillation counter (Hewlett Packard). The compounds were tested at 1 mM and 0.1 mM concentrations. Activity is expressed as % of control where control contained no inhibitor, n=4. The DDAH inhibitors of the present invention tested had no significant effect on eNOS activity.

iNOS = molecular target: T2, iNOS (Mus musculus, UniProt P29477); assay: iNOS activity Greiss assay in stimulated RAW cells; assay type: cell-based; conditions: Griess NOx, RAW cells stimulated 24 h with LPS/IFN and TNF, compound 0.5 mM, 550 nm; control 0.367 ± 0.021
T2 construct: endogenous in cells; host or cells: RAW cells stimulated with LPS/IFN and TNF
Experimental: RAW cells were stimulated for 24 h with LPS/IFN and TNF, in the presence of the DDAH inhibitor compounds (0.5 mM). Levels of NOx secreted into the media by the cells were determined by Griess assay: Greiss reagent [1:1 sulfanilamide ([…]) in ortho-phosphoric acid (50%) and N-(1-napthyl)ethylenediamine dihydrochloride (1%)] was added as 100 μl volume to 100 μl cell culture media and the plate was read at 550 nm and analysed in relation to sodium nitrite and nitrate standards.

RAW cells = assay: Cell viability assay (MTT) in RAW cells
Experimental: RAW cells were treated with DDAH inhibitor compound (0.5 mM) in complete media for 24 h; cells were subsequently assessed for viability by MTT assay. Cell culture media was removed from cells and replaced with 200 μl complete media containing 3-[4,5-Dimethylthiazol-2-yl]-2,5-diphenyltetrazolium bromide (MTT 0.2 mg/ml) for 30 min at 37° C. MTT containing media was removed and 100 ul DMSO was added to solubilize cells; after shaking, plates were read at OD550 nm.

[1] = MTT, RAW cells, compound 0.5 mM, 24 h, OD550 nm, control 2.54 ± 0.26

T1 sequence (O08557 2-285 limits assumed): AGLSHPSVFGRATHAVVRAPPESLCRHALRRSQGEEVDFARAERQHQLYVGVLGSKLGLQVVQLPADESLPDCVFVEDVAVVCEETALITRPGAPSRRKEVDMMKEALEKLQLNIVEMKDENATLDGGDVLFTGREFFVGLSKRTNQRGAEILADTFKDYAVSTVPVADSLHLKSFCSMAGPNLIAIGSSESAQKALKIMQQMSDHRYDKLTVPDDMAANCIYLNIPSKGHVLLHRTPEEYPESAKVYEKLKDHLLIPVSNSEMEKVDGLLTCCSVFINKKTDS

Compound: NC(=NCc1cccs1)NCC[C@H](N)C(=O)O [(S)-2-Amino-4-(N′-(2-thiophenemethyl)guanidino)butanoic acid]
Inhibition at 1 mM, % (DDAH): 34%

Compound: CC(C)N=C(N)NCC[C@H](N)C(=O)O [Example 1, (S)-2-Amino-4-(N′-isopropylguanidino)butanoic acid]
inhibition at 1000 µM (DDAH): 38%

Compound: CCCN=C(N)NCC[C@H](N)C(=O)O [Example 2, (S)-2-Amino-4-(N′-propylguanidino)butanoic acid]
inhibition at 1000 µM (DDAH): 41%

Compound: NC(=NCc1ccccc1)NCC[C@H](N)C(=O)O [Example 3, (S)-2-Amino-4-(N′-benzylguanidino)butanoic acid]
inhibition at 1000 µM (DDAH): 22%

Compound: NC(=NC1CCCCC1)NCC[C@H](N)C(=O)O [Example 4, (S)-2-Amino-4-(N′-cyclohexylguanidino)butanoic acid]
inhibition at 1000 µM (DDAH): 51%

Compound: NC(=Nc1ccccc1)NCC[C@H](N)C(=O)O [Example 5, (S)-2-Amino-4-(N′-phenylguanidino)butanoic acid]
inhibition at 1000 µM (DDAH): 65%

Compound: COCCN=C(N)NCC[C@H](N)C(=O)O [Example 6, (S)-2-Amino-4-(N′-(2-methoxyethyl)guanidino)butanoic acid]
inhibition at 1000 µM (DDAH): 90%

Compound: CCCCCCCCN=C(N)NCC[C@H](N)C(=O)O [Example 7, (S)-2-Amino-4-(N′-octylguanidino)butanoic acid]
inhibition at 1000 µM (DDAH): 27%

Compound: NC(=NC1CC1)NCC[C@H](N)C(=O)O [Example 8, (S)-2-Amino-4-(N′-cyclopropylguanidino)butanoic acid]
inhibition at 1000 µM (DDAH): 65%

Compound: CN(C)CCN=C(N)NCC[C@H](N)C(=O)O [Example 9, (S)-2-Amino-4-(N′-(2′-dimethylaminoethyl)guanidino)butanoic acid]
Inhibition at 1 mM, % (DDAH): 25%

Compound: CC(C)(C)CN=C(N)NCC[C@H](N)C(=O)O [Example 10]
Inhibition at 1 mM, % (DDAH): 19%

Compound: NC(=NCCOc1ccccc1)NCC[C@H](N)C(=O)O [Example 11, (S)-2-Amino-4-(N′-(2-phenoxyethyl)guanidino)butanoic acid]
inhibition at 1000 µM (DDAH): 38%

Compound: CSCCN=C(N)NCC[C@H](N)C(=O)O [Example 12, (S)-2-Amino-4-(N′-(2-methylthioethyl)guanidino)butanoic acid]
inhibition at 1000 µM (DDAH): 19%

Compound: N=C(NCCC[C@H](N)C(=O)O)NCC1CCCO1 (stereo partly drawn) [Example 31, (S)—N^G-((Tetrahydrofuran-2-yl)methyl)-arginine]
Inhibition at 100 μM (%) (DDAH): 30%

Compound: N=C(NCC[C@H](N)C(=O)O)NCC1CCCO1 (stereo partly drawn) [Example 32, (2S)-2-Amino-4-N^G-((tetrahydrofuran-2-yl)methyl)guanidinobutanoic acid]
Inhibition at 100 μM (%) (DDAH): 10%

Compound: CNC(=N)NCCC[C@H](N)C(=O)O [L-NMMA, N^G monomethyl-L-arginine, reference compound]
% of control ± sd (eNOS; 1 mM compound): 16.17 ± 15.78 [4] % of control
OD units drug ± sd (iNOS): 0.121 ± 0.003 OD units
OD units drug ± sd (RAW cells; [1]): 2.22 ± 0.08 OD units

The next lines start with results.

inhibition at 1000 µM (DDAH): 97%
Compound: CC(C)OCCN=C(N)NCC[C@H](N)C(=O)O [Example 13, (S)-2-Amino-4-(N′-(2-isopropoxyethyl)guanidino)butanoic acid]

inhibition at 1000 µM (DDAH): 70%
Compound: C=CCN=C(N)NCC[C@H](N)C(=O)O [Example 14, (S)-2-Amino-4-(N′-allylguanidino)butanoic acid]

inhibition at 1000 µM (DDAH): 74%
Compound: N=C(NCC[C@H](N)C(=O)O)N1CCCCC1 [Example 15, (S)-2-Amino-4-[(piperidine-1-carboximidoyl)-amino]butanoic acid]

inhibition at 1000 µM (DDAH): 79%
Compound: N=C(NCC[C@H](N)C(=O)O)N1CCCC1 [Example 16, (S)-2-Amino-4-[(pyrrolidine-1-carboximidoyl)-amino]butanoic acid]

inhibition at 1000 µM (DDAH): 60%
Compound: N=C(NCC[C@H](N)C(=O)O)N1CCOCC1 [Example 17, (S)-2-Amino-4-[(morpholine-4-carboximidoyl)-amino]butanoic acid]

OD units drug ± sd (iNOS): 0.329 ± 0.013 OD units
inhibition at 1000 µM (DDAH): 75%
Compound: COCCN=C(N)NCC[C@H](N)C(=O)OC [Example 22, (S)-2-Amino-4-(N′-(2-methoxyethyl)guanidino)butanoic acid methyl ester]
% of control ± sd (eNOS; 0.1 mM compound): 87.23 ± 18.05 [2] % of control
% of control ± sd (eNOS; 1 mM compound): 84.05 ± 8.09 [4] % of control
OD units drug ± sd (RAW cells): 2.33 ± 0.19 OD units

inhibition at 1000 µM (DDAH): 44%
Compound: CCOC(=O)[C@@H](N)CCNC(N)=NCCOC [Example 23, (S)-2-Amino-4-(N′-(2-methoxyethyl)guanidino)butanoic acid ethyl ester]

OD units drug ± sd (iNOS): 0.351 ± 0.013 OD units
Inhibition at 1 mM, % (DDAH): 64%
Compound: CCCOC(=O)[C@@H](N)CCN(CCOC)C(=N)N [Example 24, (S)-2-Amino-4-(N-(2-methoxyethyl)guanidino)butanoic acid propyl ester]
% of control ± sd (eNOS; 0.1 mM compound): 113.5 ± 7.93 [2] % of control
% of control ± sd (eNOS; 1 mM compound): 93.97 ± 12.93 [4] % of control

inhibition at 1000 µM (DDAH): 40%
Compound: CCCCOC(=O)[C@@H](N)CCNC(N)=NCCOC [Example 25, (S)-2-Amino-4-(N′-(2-methoxyethyl)guanidino)butanoic acid butyl ester]

OD units drug ± sd (iNOS): 0.327 ± 0.026 OD units
inhibition at 1000 µM (DDAH): 96%
Compound: COCCN=C(N)NCC[C@H](N)C(=O)OCc1ccccc1 [Example 26, (S)-2-Amino-4-(N′-(2-methoxyethyl)guanidino)butanoic acid benzyl ester]
% of control ± sd (eNOS; 0.1 mM compound): 101.2 ± 38.07 [2] % of control
% of control ± sd (eNOS; 1 mM compound): 82.88 ± 10.08 [4] % of control
OD units drug ± sd (RAW cells): 2.40 ± 0.17 OD units

inhibition at 100 µM (DDAH): 47.4%
Compound: COCCN=C(N)NCC[C@H](N)C(=O)OCc1ccccc1OC [Example 33, 2-Methoxybenzyl (S)-2-amino-4-[(N′-(2-methoxyethyl))guanidino]butanoate]

inhibition at 100 µM (DDAH): 22.1%
Compound: COCCN=C(N)NCC[C@H](N)C(=O)OCc1ccc(OC)cc1 [Example 34, 4-Methoxybenzyl (S)-2-amino-4-[(N′-(2-methoxyethyl))guanidino]butanoate]

inhibition at 100 µM (DDAH): 39.8%
Compound: COCCN=C(N)NCC[C@H](N)C(=O)OCc1ccccc1F [Example 35, 2-Fluorobenzyl (S)-2-amino-4-[(N′-(2-methoxyethyl))guanidino]butanoate]

inhibition at 100 µM (DDAH): 50.6%
Compound: COCCN=C(N)NCC[C@H](N)C(=O)OCc1ccc(F)c(C(F)(F)F)c1 [Example 36, 3-Trifluoromethyl-4-fluorobenzyl (S)-2-amino-4-[(N′-(2-methoxyethyl))guanidino]butanoate]

inhibition at 100 µM (DDAH): 42.7%
Compound: COCCN=C(N)NCC[C@H](N)C(=O)OCc1cccc(Oc2ccccc2)c1 [Example 37, 3-Phenoxybenzyl (S)-2-amino-4-[(N′-(2-methoxyethyl))guanidino]butanoate]

inhibition at 100 µM (DDAH): 48.7%
Compound: COCCN=C(N)NCC[C@H](N)C(=O)OCc1cccc(C)c1 [Example 38, 3-Methylbenzyl (S)-2-amino-4-[(N′-(2-methoxyethyl))guanidino]butanoate]

inhibition at 100 µM (DDAH): 45.3%
Compound: COCCN=C(N)NCC[C@H](N)C(=O)OCc1cccc(C(F)(F)F)c1 [Example 39, 3-Trifluoromethylbenzyl (S)-2-amino-4-[(N′-(2-methoxyethyl))guanidino]butanoate]

inhibition at 100 µM (DDAH): 33.2%
Compound: COCCN=C(N)NCC[C@H](N)C(=O)OCc1cccc(F)c1 [Example 40, 3-Fluorobenzyl (S)-2-amino-4-[(N′-(2-methoxyethyl))guanidino]butanoate]

inhibition at 100 µM (DDAH): 59%
Compound: COCCN=C(N)NCC[C@H](N)C(=O)OCCOC [Example 41, 2-Methoxyethyl (S)-2-amino-4-[(N′-(2-methoxyethyl))guanidino]butanoate]

OD units drug ± sd (iNOS): 0.103 ± 0.002 OD units
Compound: CC(=N)NCCC[C@H](N)C(=O)O [NIO, L-N-5-(1-iminoethyl)ornithine, reference compound]
% of control ± sd (eNOS; 0.1 mM compound): 4.14 ± 8.74 [3] % of control
% of control ± sd (eNOS; 1 mM compound): 6.25 ± 7.52 [5] % of control
OD units drug ± sd (RAW cells; [1]): 1.89 ± 0.41 OD units

— patent US8063104B2, “Guanidine derivatives as inhibitors of DDAH” (UCL Business PLC, priority 2004, dated 2011)
